# Key:
# U87 glioblastoma cells = details: Journal of Cancer 9(1):117-128, 2018; cited from earlier work
# [1] = system: PC3 prostate cancer cell lines; details: animal experiments (Oncogene 24:3923-3931, 2005); cited from earlier work
# A-375 melanoma = details: animal experiments (Oncogene 24:3923-3931, 2005); cited from earlier work
# pancreatic cancer cells = details: in vitro (PloS ONE 10(6):e0130277, 2015); cited from earlier work
# [2] = system: cleaved poly (ADP-ribose) polymerase (PARP) and phosphor-histone H2A.X (p-H2A.X); assay: Expression of cleaved PARP and p-H2A.X in SK-N-SH; type: cell-based; details: increasing rilpivirine 0.12, 0.37, 1.11, 3.3, and 10 μM
# MV-4-11 = assay: EC50 in cancer cell line, rilpivirine alone; type: cell-based; details: Homo sapiens, MV4-11, Biphenotypic B myelomonocytic leukemia
# IMR-32 tumor = assay: Xenograft mouse model of neuroblastoma, tumor volume; type: in vivo, female BALB/c nude mice; details: rilpivirine 400 mg/kg once daily for 21 consecutive days, oral; p<0.05
# Description: (§1) This study employed female BALB/c nude mice, aged 4-5 weeks, obtained from BioLasco Taiwan (under Charles River Laboratories Licensee). The animals were housed in individually ventilated cages (IVC, 36 Mini Isolator system). The allocation for 4 animals was 27×20×14 in cm. All the animals were maintained in a hygienic environment under controlled temperature (20-24° C.) and humidity (30%-70%) with 12-hour light/dark cycle. Free access to standard lab diet [MFG (Oriental Yeast Co., Ltd., Japan)] and autoclaved tap water were granted. All aspects of this work including housing, experimentation, and animal disposal were performed in general accordance with the “Guide for the Care and Use of Laboratory Animals: Eighth Edition” (National Academies Press, Washington, D.C., 2011) in our AAALAC-accredited laboratory animal facility. In addition, the animal care and use protocol was reviewed and approved by the IACUC at Pharmacology Discovery Services, Taiwan.
# The IMR-32 tumor cell line was purchased from American Type Culture Collection (ATCC CCL-127, neuroblastoma) and cultured in Pharmacology Discovery Services, Taiwan. The cells were cultured in MEM medium containing 10% fetal bovine serum (FBS), 1 mM sodium pyruvate and 1 mM NEAA at 37° C. in 5% CO2 incubator. […] The tumor volume, body weight, mortality, and signs of overt toxicity were monitored and recorded twice weekly for 28 days. […]
# SR = assay: EC50 in cancer cell line, rilpivirine alone; type: cell-based; details: Homo sapiens, Large cell immunoblastic lymphoma
# IM-9 = assay: EC50 in cancer cell line, rilpivirine alone; type: cell-based; details: Homo sapiens, Multiple myeloma
# BxPC-3 = assay: EC50 in cancer cell line, rilpivirine alone; type: cell-based; details: Homo sapiens, Pancreas
# [3] = Xenograft mouse model, body weight and signs of overt toxicity; type: in vivo, female BALB/c nude mice; details: rilpivirine 400 mg/kg once daily for 21 consecutive days, oral
# Description: as §1
# The IMR-32 tumor cell line was purchased from American Type Culture Collection (ATCC CCL-127, neuroblastoma) and cultured in Pharmacology Discovery Services, Taiwan. The cells were cultured in MEM medium containing 10% fetal bovine serum (FBS), 1 mM sodium pyruvate and 1 mM NEAA at 37° C. in 5% CO2 incubator. Female BALB/c nude mice were used as described in the preceding section. Viable IMR-32 cells (ATCC CCL-127) were subcutaneously (SC) implanted (1×10^7 cells in 1:1 matrigel/complete media mixture at 0.2 mL/mouse) into the right flank of female BALB/c nude mice. Forty-one days post tumor cell implantation (group mean tumor volumes ranging 128 mm^3-130 mm^3), all the animals were randomized into sixteen study groups, each containing eight animals, and dose administrations were initiated (denoted as Day 1). All the experiments were conducted using protocols and conditions approved by the institutional animal care and use committee. The tumor volume, body weight, mortality, and signs of overt toxicity were monitored and recorded twice weekly for 28 days.
# SK-N-AS = assay: EC50 in cancer cell line, rilpivirine alone; type: cell-based; details: Homo sapiens, Neuroblastoma
# SK-N-BE(2) cell line = assay: MTT cell proliferation assay, SK-N-BE(2); type: cell-based
# Description: (§2) In the present invention, the IC50 concentrations required to inhibit the activity of IMR-32 cell line and other neuroblastoma cell lines were determined for rilpivirine and other chemotherapeutic agents, and presented on the two-coordinate plot with x- and y-axes, forming the two points (IC50, rilpivirine, 0) and (0, IC50, chemotherapeutic agents). […] Moreover, the concentration or ratios of rilpivirine in combination with chemotherapeutic agents which provide the same inhibition effect are denoted as point (Crilpivirine, 50, Cchemotherapeutic agents, 50) in the same plot.
# (§3) The combination index provides a quantitative measurement of the drug-drug interaction at the given effect level. The combination index (CI) is calculated by following equation: […]
# (§4) The IMR-32, SK-N-SH, SH-SY5Y and SK-N-BE(2) tumor cell lines were purchased from American Type Culture Collection (ATCC, Manassas, VA). […] The cells were incubated for 72 hours and then cell proliferation was measured by 3-(4,5-dimethyl-2-thiazolyl)-2,5-diphenyl-2H-tetrazolium bromide (MTT) colorimetric assays (Sigma-Aldrich, Inc., St. Louis, MO). […] Absorbance of each well was measured with a spectrophotometer (uQuant SpectroMAX Gemini Dual-scanning microplate spectro, Bio-tek Instrument Inc.) at 550 nm. Growth inhibition was expressed as the ratio of the mean absorbance of treated cells relative to that of the control.
# SK-N-SH cell line = assay: MTT cell proliferation assay, SK-N-SH; type: cell-based
# Description: as §2, §3, §4
# EM-2 = assay: EC50 in cancer cell line, rilpivirine alone; type: cell-based; details: Homo sapiens, Chronic myelogenous leukemia
# CHP-212 = assay: EC50 in cancer cell line, rilpivirine alone; type: cell-based; details: Homo sapiens, Neuroblastoma
# MOLT-4 = assay: EC50 in cancer cell line, rilpivirine alone; type: cell-based; details: Homo sapiens, Acute lymphoblastic leukemia
# KU812 = assay: EC50 in cancer cell line, rilpivirine alone; type: cell-based; details: Homo sapiens, Chronic myelogenous leukemia
# Jurkat = assay: EC50 in cancer cell line, rilpivirine alone; type: cell-based; details: Homo sapiens, Acute lymphoblastic leukemia
# IMR-32 cell line = assay: MTT cell proliferation assay, IMR-32; type: cell-based, human
# Description: as §2, §3, §4
# CEM-C2 = assay: EC50 in cancer cell line, rilpivirine alone; type: cell-based; details: Homo sapiens, Acute lymphoblastic leukemia
# T47D = assay: EC50 in cancer cell line, rilpivirine alone; type: cell-based; details: Homo sapiens, Breast
# U-87 MG = assay: EC50 in cancer cell line, rilpivirine alone; type: cell-based; details: Homo sapiens, Glioblastoma/malignant glioma
# Caki-2 = assay: EC50 in cancer cell line, rilpivirine alone; type: cell-based; details: Homo sapiens, Kidney
# 647-V = assay: EC50 in cancer cell line, rilpivirine alone; type: cell-based; details: Homo sapiens, Bladder
# MES-SA = assay: EC50 in cancer cell line, rilpivirine alone; type: cell-based; details: Homo sapiens, Uterine sarcoma
# PC-3 = assay: EC50 in cancer cell line, rilpivirine alone; type: cell-based; details: Homo sapiens, Prostate
# BV-173 = assay: EC50 in cancer cell line, rilpivirine alone; type: cell-based; details: Homo sapiens, B-cell precursor leukemia (CML)
# D283Med = assay: EC50 in cancer cell line, rilpivirine alone; type: cell-based; details: Homo sapiens, D283 Med, Medulloblastoma
# SU-DHL-8 = assay: EC50 in cancer cell line, rilpivirine alone; type: cell-based; details: Homo sapiens, Large cell lymphoma
# HMCB = assay: EC50 in cancer cell line, rilpivirine alone; type: cell-based; details: Homo sapiens, Melanoma
# [4] = system: cleaved poly (ADP-ribose) polymerase (PARP) and phosphor-histone H2A.X (p-H2A.X); assay: Expression of cleaved PARP and p-H2A.X in SK-N-BE(2); type: cell-based; details: increasing rilpivirine 0.12, 0.37, 1.11, 3.3, and 10 μM
# Daudi = assay: EC50 in cancer cell line, rilpivirine alone; type: cell-based; details: Homo sapiens, Burkitt's lymphoma
# EB2 = assay: EC50 in cancer cell line, rilpivirine alone; type: cell-based; details: Homo sapiens, Burkitt's lymphoma
# GA-10 = assay: EC50 in cancer cell line, rilpivirine alone; type: cell-based; details: Homo sapiens, Burkitt's lymphoma
# TF-1 = assay: EC50 in cancer cell line, rilpivirine alone; type: cell-based; details: Homo sapiens, Erythroleukemia
# DOHH-2 = assay: EC50 in cancer cell line, rilpivirine alone; type: cell-based; details: Homo sapiens, B-cell lymphoma
# JVM-2 = assay: EC50 in cancer cell line, rilpivirine alone; type: cell-based; details: Homo sapiens, Mantle cell lymphoma
# HUH-6 = assay: EC50 in cancer cell line, rilpivirine alone; type: cell-based; details: Homo sapiens, Liver
# MOLT-16 = assay: EC50 in cancer cell line, rilpivirine alone; type: cell-based; details: Homo sapiens, Acute lymphoblastic leukemia
# SU-DHL-4 = assay: EC50 in cancer cell line, rilpivirine alone; type: cell-based; details: Homo sapiens, B-cell non-Hodgkin lymphoma
# U-937 = assay: EC50 in cancer cell line, rilpivirine alone; type: cell-based; details: Homo sapiens, Histiocytic lymphoma
# ST486 = assay: EC50 in cancer cell line, rilpivirine alone; type: cell-based; details: Homo sapiens, Burkitt's lymphoma
# SH-SY5Y cell line = assay: MTT cell proliferation assay, SH-SY5Y; type: cell-based
# Description: as §2, §3, §4
# DMS273 = assay: EC50 in cancer cell line, rilpivirine alone; type: cell-based; details: Homo sapiens, DMS-273, SCLC
# HuTu80 = assay: EC50 in cancer cell line, rilpivirine alone; type: cell-based; details: Homo sapiens, Duodenum
# SNU-16 = assay: EC50 in cancer cell line, rilpivirine alone; type: cell-based; details: Homo sapiens, Stomach
# [5] = system: cleaved poly (ADP-ribose) polymerase (PARP) and phosphor-histone H2A.X (p-H2A.X); assay: Expression of cleaved PARP and p-H2A.X in SH-SY5Y; type: cell-based; details: increasing rilpivirine 0.12, 0.37, 1.11, 3.3, and 10 μM
# COR-L105 = assay: EC50 in cancer cell line, rilpivirine alone; type: cell-based; details: Homo sapiens, NSCLC
# PANC-1 = assay: EC50 in cancer cell line, rilpivirine alone; type: cell-based; details: Homo sapiens, Pancreas
# RKO-AS45-1 = assay: EC50 in cancer cell line, rilpivirine alone; type: cell-based; details: RKOAS451, Colon
# J-RT3-T3-5 = assay: EC50 in cancer cell line, rilpivirine alone; type: cell-based; details: Homo sapiens, Acute T-cell leukemia
# TUR = assay: EC50 in cancer cell line, rilpivirine alone; type: cell-based; details: Histiocytic lymphoma
# Thp1 = assay: EC50 in cancer cell line, rilpivirine alone; type: cell-based; details: Homo sapiens, THP-1, Acute monocytic leukemia
# [6] = Homo sapiens, rilpivirine alone, 72 hours
smiles,measurement,setting,value
Cc1cc(C)c(Nc2ccnc(Nc3ccc(C#N)cc3)n2)c(C)c1 [Dapivirine],tumor growth of U87 glioblastoma cells,U87 glioblastoma cells,inhibit tumor growth
O=C1Nc2ccc(Cl)cc2[C@@](C#CC2CC2)(C(F)(F)F)O1 [efavirenz],tumorigenic growth of PC3 prostate cancer cell lines,[1],antagonize tumorigenic growth
same,tumorigenic growth of A-375 melanoma,A-375 melanoma,antagonize tumorigenic growth
same,toxic potential against pancreatic cancer cells,pancreatic cancer cells,high toxic potential
Cc1ccnc2c1NC(=O)c1cccnc1N2C1CC1 [nevirapine],tumorigenic growth of PC3 prostate cancer cell lines,[1],antagonize tumorigenic growth
same,tumorigenic growth of A-375 melanoma,A-375 melanoma,antagonize tumorigenic growth
Cc1cc(/C=C/C#N)cc(C)c1Nc1ccnc(Nc2ccc(C#N)cc2)n1 [rilpivirine],expression of cleaved PARP and p-H2A.X,[2],increased gradually
same,EC50,MV-4-11,4.88 µM
same,tumor growth compared to negative control group (vehicle),IMR-32 tumor,significantly inhibited
same,EC50,SR,3.78 µM
same,EC50,IM-9,4.13 µM
same,EC50,BxPC-3,11.3 µM
same,body weight loss,[3],not associated with body weight loss
same,overt toxicities,[3],no overt toxicities were observed
same,tolerability,[3],well tolerated
same,EC50,SK-N-AS,4.84 µM
same,growth of neuroblastoma cell line under rilpivirine treatment,SK-N-BE(2) cell line,successfully inhibited
same,IC50,"SK-N-BE(2) cell line; Homo sapiens, SKNBE2, rilpivirine alone, 72 hours",3.37 µM
same,growth of neuroblastoma cell line under rilpivirine treatment,SK-N-SH cell line,successfully inhibited
same,IC50,SK-N-SH cell line; [6],2.75 µM
same,EC50,EM-2,3.96 µM
same,EC50,CHP-212,3.26 µM
same,EC50,MOLT-4,3.75 µM
same,EC50,KU812,4.09 µM
same,EC50,Jurkat,3.68 µM
same,growth of neuroblastoma cell line IMR-32,IMR-32 cell line; 5 μM rilpivirine treatment for 24 hours,significantly inhibited
same,IC50,"IMR-32 cell line; Homo sapiens, IMR-32, rilpivirine alone, 72 hours",2.97 µM
same,EC50,CEM-C2,4.04 µM
same,EC50,T47D,3.23 µM
same,EC50,U-87 MG,14.4 µM
same,EC50,Caki-2,4.05 µM
same,EC50,647-V,12.3 µM
same,EC50,MES-SA,4.91 µM
same,EC50,PC-3,6.23 µM
same,EC50,BV-173,3.69 µM
same,EC50,D283Med,3.54 µM
same,EC50,SU-DHL-8,4.19 µM
same,EC50,HMCB,3.49 µM
same,expression of cleaved PARP and p-H2A.X,[4],increased gradually
same,EC50,Daudi,4.01 µM
same,EC50,EB2,4.81 µM
same,EC50,GA-10,3.7 µM
same,EC50,TF-1,3.76 µM
same,EC50,DOHH-2,4.45 µM
same,EC50,JVM-2,2.74 µM
same,toxic potential against pancreatic cancer cells,pancreatic cancer cells,high toxic potential
same,EC50,HUH-6,2.41 µM
same,EC50,MOLT-16,3.38 µM
same,EC50,SU-DHL-4,4.29 µM
same,EC50,U-937,3.37 µM
same,EC50,ST486,3.76 µM
same,growth of neuroblastoma cell line under rilpivirine treatment,SH-SY5Y cell line,successfully inhibited
same,IC50,SH-SY5Y cell line; [6],3.12 µM
same,EC50,DMS273,4.96 µM
same,EC50,HuTu80,3.59 µM
same,EC50,SNU-16,4.23 µM
same,expression of cleaved PARP and p-H2A.X,[5],increased gradually
same,EC50,COR-L105,3.11 µM
same,EC50,PANC-1,8.27 µM
same,EC50,RKO-AS45-1,4.4 µM
same,EC50,J-RT3-T3-5,4.04 µM
same,EC50,TUR,2.08 µM
same,EC50,Thp1,4.29 µM

# Reference: US12023334B2, “Composition including rilpivirine and method for treating tumors or cancer” (APTORUM THERAPEUTICS LIMITED, priority 2019, dated 2024)
